Source: US7553798B2, “Heterocyclic carboxamides with microbiocidal activity” (Syngenta Crop Protection, Inc., priority 2004, dated 2009)

| melting point | SMILES |
| --- | --- |
| 122 to 125 °C | Cn1cc(C(=O)Nc2ccccc2-c2ccc(C#CC(C)(C)C)s2)c(C(F)(F)F)n1 [Compound 1ai.098, 1-methyl-3-trifluoromethyl-1H-pyrazole-4-carboxylic acid {2-[5-(3,3-dimethyl-but-1-ynyl)-thiophen-2-yl]-phenyl}-amide] |
| 145 to 148 °C | Cn1cc(C(=O)Nc2ccccc2-n2cc(C#CC(C)(C)C)cn2)c(C(F)F)n1 [Compound 1ar.099, 3-difluoromethyl-1-methyl-1H-pyrazole-4-carboxylic acid {2-[4-(3,3-dimethyl-but-1-ynyl)-pyrazol-1-yl]-phenyl}-amide] |
